The values that follow come from patent publication US11078152B2, “Method for resolution of baclofen salts” (Universite de Rouen, priority 2016, dated 2021).

Data set [1] can be described thus: Determination of the solubility of the racemic Bahma salt in a given solvent at a given temperature. Conditions: for Solubility 1M HCl: aqueous 1M HCl solution; for Solubility 2M HCl: aqueous 2M HCl solution; for Solubility: n-propanol/water azeotropic mixture; for Solubility Water: pure water. The class given is physicochemical. On the procedure:
Determination of the Solubility
The solubility of a Bahma salt in a given solvent was calculated, for a given temperature and in a given volume of solvent, via the following formula:
[formula] in which mBahma is the mass of the Bahma salt introduced in grams to reach saturation; ρsolvent is the density of the solvent in g.mL^−1; and Vsolvent is the volume of the solvent in mL.
The solubility of the racemic Bahma salt at various temperatures was determined in the n-propanol/water azeotropic mixture (ρ=0.870 g.mL^−1).
The solubility of the racemic Bahma salt at various temperatures was determined in pure water (ρ=1 g.mL^−1), in aqueous 1M HCl solution (ρ=1.017 g.mL^−1) and in aqueous 2M HCl solution (ρ=1.030 g.mL^−1).

For data set [2] the following is noted: background statement, no test described; cited from earlier work.

In the case of `NCC(CC(=O)O)c1ccc(Cl)cc1.O=C(O)C=CC(=O)O` (racemic) [racemic Bahma salt, baclofen hydrogen maleate], in data set [1] (20° C.), the “Solubility 1M HCl” value is 4.51%, the “Solubility 2M HCl” value came to 6.48%, the Solubility is reported as 1.49% and the “Solubility Water” value is 0.75%. In addition, in data set [1] (35° C.), the “Solubility 1M HCl” value was determined as 6.86%, the “Solubility 2M HCl” value is reported as 11.44%, the Solubility turned out to be 2.80% and the “Solubility Water” value is recorded as 1.00%. Further, in data set [1] (50° C.), the “Solubility 1M HCl” value worked out at 12.54%, the “Solubility 2M HCl” value is reported as 22.24%, the Solubility amounted to 4.81% and the “Solubility Water” value turned out to be 1.78%.

For `NC[C@H](CC(=O)O)c1ccc(Cl)cc1` [R(−) enantiomer, (R)-4-amino-3-(4-chlorophenyl)butanoic acid], the “activity relative to the S(+) enantiomer” value in data set [2] is “three times more active than the S(+) enantiomer”.
